# Test results from ChEMBL document CHEMBL4715894, “Design and synthesis of an anthranyl bridged optically active dinuclear iron(II)-ligand and evaluation of DNA-cleaving activity” (Bioorg Med Chem Lett, 2021).
# Active and inactive are the calls of the source. No cut-off for these calls is given here.
# Columns and labels:
# Assay type in all cases: nucleic-acid assay
# DNA [1] = assay: Induction of DNA cleavage in Escherichia coli ER2272 pUC19 plasmid DNA assessed as decrease in supercoiled DNA at 0.1 to 50 uM in presence of Fe2+ at 10 uM after 60 mins by ethidium bromide staining based densitometric method relative to control; parameters: scale not given: the % may be the effect or the level left; details: dose 0.1-50 µM
# DNA [2] = assay: Induction of DNA cleavage in Escherichia coli ER2272 pUC19 plasmid DNA assessed as decrease in relaxed circular DNA at 15 uM in presence of Fe2+ at 30 uM <=15 min by ethidium bromide staining based densitometric method; details: time min <=15
# DNA [3] = assay: Induction of DNA cleavage in Escherichia coli ER2272 pUC19 plasmid DNA assessed as decrease in supercoiled DNA at 0.1 to 50 uM in presence of Fe2+ at 30 to 50 uM after 60 mins by ethidium bromide staining based densitometric method; details: dose 0.1-50 µM
# DNA [4] = assay: Induction of DNA cleavage in Escherichia coli ER2272 pUC19 plasmid DNA assessed as decrease in linear DNA at 15 uM in presence of Fe2+ at 30 uM <=15 min by ethidium bromide staining based densitometric method; details: time min <=15
# dsDNA [5] = assay: Induction of DNA cleavage in pBluescript II SK+ DNA (unknown origin) assessed as cleaved in 5'-AATTCCGGAA-3' sequence at 5 uM in presence of Fe2+ at 30 uM after 10 mins by PAGE based DNA sequencing analysis
# DNA [6] = assay: Induction of DNA cleavage in Escherichia coli ER2272 pUC19 plasmid DNA assessed as decrease in supercoiled DNA at 15 uM in presence of Fe2+ at 30 uM after 1 min by ethidium bromide staining based densitometric method relative to control
# DNA [7] = assay: Induction of DNA cleavage in Escherichia coli ER2272 pUC19 plasmid DNA assessed as increase in relaxed circular DNA at 15 uM in presence of Fe2+ at 30 uM after 1 min by ethidium bromide staining based densitometric method
# DNA [8] = assay: Induction of DNA cleavage in Escherichia coli ER2272 pUC19 plasmid DNA assessed as decrease in linear DNA at 0.1 to 50 uM in presence of Fe2+ at 30 to 50 uM after 60 mins by ethidium bromide staining based densitometric method; details: dose 0.1-50 µM
# DNA [9] = assay: Induction of DNA cleavage in Escherichia coli ER2272 pUC19 plasmid DNA assessed as decrease in relaxed circular DNA at 0.1 to 50 uM in presence of Fe2+ at 10 uM after 60 mins by ethidium bromide staining based densitometric method; details: dose 0.1-50 µM
# DNA [10] = assay: Induction of DNA cleavage in Escherichia coli ER2272 pUC19 plasmid DNA assessed as increase in linear DNA at 15 uM in presence of Fe2+ at 30 uM after 1 min by ethidium bromide staining based densitometric method
# DNA [11] = assay: Induction of DNA cleavage in Escherichia coli ER2272 pUC19 plasmid DNA assessed as linear DNA at 0.1 to 50 uM in presence of Fe2+ at >5 uM uM after 60 mins by ethidium bromide staining based densitometric method; details: dose 0.1-50 µM
# DNA [12] = assay: Induction of DNA cleavage in Escherichia coli ER2272 pUC19 plasmid DNA assessed as decrease in relaxed circular DNA at 0.1 to 50 uM in presence of Fe2+ at 30 to 50 uM after 60 mins by ethidium bromide staining based densitometric method; details: dose 0.1-50 µM
# dsDNA [13] = assay: Induction of DNA cleavage in pBluescript II SK+ DNA (unknown origin) assessed as cleaved in 5'-TTAATT-3' sequence at 5 uM in presence of Fe2+ at 30 uM after 10 mins by PAGE based DNA sequencing analysis
# dsDNA [14] = assay: Induction of DNA cleavage in pBluescript II SK+ DNA (unknown origin) assessed as cleaved in 5'-CT-3' sequence at 30 uM in presence of Fe2+ at 30 uM after 30 mins by PAGE based DNA sequencing analysis
# DNA [15] = assay: Induction of DNA cleavage in Escherichia coli ER2272 pUC19 plasmid DNA assessed as increase in relaxed circular DNA at 30 uM in presence of Fe2+ at 30 uM by ethidium bromide staining based densitometric method; details: time min <=15
# DNA [16] = assay: Induction of DNA cleavage in Escherichia coli ER2272 pUC19 plasmid DNA assessed as decrease in supercoiled DNA at 0.1 to 50 uM in presence of Fe2+ at 0.1 to 5 uM after 60 mins by ethidium bromide staining based densitometric method; details: dose 0.1-50 µM
# DNA [17] = assay: Induction of DNA cleavage in Escherichia coli ER2272 pUC19 plasmid DNA assessed as linear DNA at 30 uM in presence of Fe2+ at 30 uM up to 15 mins by ethidium bromide staining based densitometric method; details: time min <=15
# DNA [18] = assay: Induction of DNA cleavage in Escherichia coli ER2272 pUC19 plasmid DNA assessed as decrease in supercoiled DNA at 30 uM in presence of Fe2+ at 30 uM by ethidium bromide staining based densitometric method; details: time min <=15
Activity (DNA [1]),Activity (DNA [2]),Activity (DNA [3]),Activity (DNA [4]),Activity (dsDNA [5]),Activity (DNA [6]),Activity (DNA [7]),Activity (DNA [8]),Activity (DNA [9]),Activity (DNA [10]),Activity (DNA [11]),Activity (DNA [12]),Activity (dsDNA [13]),Activity (dsDNA [14]),Activity (DNA [15]),Activity (DNA [16]),Activity (DNA [17]),Activity (DNA [18]),Compound
Active,Active,Active,Active,Active,Active,Active,Active,Active,Active,Active,Active,Active,,,,,,c1ccc(CN(Cc2ccccn2)[C@@H]2CCCC[C@H]2NCc2cccc3cc4cccc(CN[C@@H]5CCCC[C@H]5N(Cc5ccccn5)Cc5ccccn5)c4cc23)nc1
100%,,,,,,,,,,Active,,,Active,Active,Active,inactive,Active,N[C@@H]1CCCC[C@H]1N(Cc1ccccn1)Cc1ccccn1
100%,,,,,,,,,,Active,,,Active,,Active,,,N[C@H]1CCCC[C@@H]1N(Cc1ccccn1)Cc1ccccn1
Active,,Active,,Active,,,Active,Active,,Active,Active,Active,,,,,,c1ccc(CN(Cc2ccccn2)[C@H]2CCCC[C@@H]2NCc2cccc3cc4cccc(CN[C@H]5CCCC[C@@H]5N(Cc5ccccn5)Cc5ccccn5)c4cc23)nc1
